The supplement of paper PMC10307832

How the values were obtained:
Experiment in all cases: relative viability (nuclei count vs DMSO), 5 days (fraction); higher = more cells survive
[1] = test system: NCI-H2023
How it was run: (§1)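 Medians of duplicate plates are given as relative viability. That measure is the nuclei count in treated wells divided by the count in vehicle wells. Counts were taken on 4× images of lung cancer cell lines in 1536-well plates, 5 days after pin-tool dosing the day after seeding with one drug alone or a fixed anchor-drug dose plus five library-drug doses (not always all listed) in √10 steps.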

[2] = test system: LU99A
How it was run: as §1

[3] = test system: HCC-78
How it was run: as §1

[4] = test system: NCI-H1651
How it was run: as §1

[5] = test system: UMC-11
How it was run: as §1

[6] = test system: SW 1573
How it was run: as §1

[7] = test system: NCI-H2085
How it was run: as §1

[8] = test system: NCI-H650
How it was run: as §1

[9] = test system: LC-2-ad
How it was run: as §1

[10] = test system: HARA
How it was run: as §1

[11] = test system: NCI-H1993
How it was run: as §1

[12] = test system: NCI-H1355
How it was run: as §1

[13] = test system: COR-L23
How it was run: as §1

[14] = test system: ABC-1
How it was run: as §1

[15] = test system: EPLC-272H
How it was run: as §1

[16] = test system: NCI-H1915
How it was run: as §1

[17] = test system: HCC-15
How it was run: as §1

[18] = test system: NCI-H358
How it was run: as §1

[19] = test system: NCI-H2126
How it was run: as §1

[20] = test system: PC-14
How it was run: as §1

[21] = test system: NCI-H838
How it was run: as §1

[22] = test system: NCI-H2347
How it was run: as §1

CC1(C)CCC(c2ccc(Cl)cc2)=C(CN2CCN(c3ccc(C(=O)NS(=O)(=O)c4ccc(N[C@H](CCN5CCOCC5)CSc5ccccc5)c(S(=O)(=O)C(F)(F)F)c4)cc3)CC2)C1 [Navitoclax] + Cc1nc(NC(=O)N2CCC[C@H]2C(N)=O)sc1-c1ccnc(C(C)(C)C(F)(F)F)c1 [Alpelisib] (partner 2 µM)
relative viability ([1]; first compound 0.005 µM): 0.581 | relative viability ([1]; first compound 0.01581 µM): 0.696 | relative viability ([1]; first compound 0.05 µM): 0.586 | relative viability ([1]; first compound 0.1581 µM): 0.616 | relative viability ([1]; first compound 0.5 µM): 0.625 | relative viability ([2]; first compound 0.005 µM): 0.5 | relative viability ([2]; first compound 0.01581 µM): 0.573 | relative viability ([2]; first compound 0.05 µM): 0.406 | relative viability ([2]; first compound 0.1581 µM): 0.526 | relative viability ([2]; first compound 0.5 µM): 0.473 | relative viability ([3]; first compound 0.005 µM): 0.309 | relative viability ([3]; first compound 0.01581 µM): 0.352 | relative viability ([3]; first compound 0.1581 µM): 0.341 | relative viability ([3]; first compound 0.5 µM): 0.339 | relative viability ([4]; first compound 0.005 µM): 0.929 | relative viability ([4]; first compound 0.01581 µM): 0.899 | relative viability ([4]; first compound 0.1581 µM): 1 | relative viability ([4]; first compound 0.5 µM): 0.946 | relative viability ([5]; first compound 0.005 µM): 0.961 | relative viability ([5]; first compound 0.01581 µM): 1.02 | relative viability ([5]; first compound 0.1581 µM): 0.979 | relative viability ([5]; first compound 0.5 µM): 0.623 | relative viability ([6]; first compound 0.005 µM): 0.635 | relative viability ([6]; first compound 0.01581 µM): 0.836 | relative viability ([6]; first compound 0.05 µM): 0.917 | relative viability ([6]; first compound 0.1581 µM): 0.796 | relative viability ([6]; first compound 0.5 µM): 0.718 | relative viability ([7]; first compound 0.005 µM): 0.944 | relative viability ([7]; first compound 0.01581 µM): 0.996 | relative viability ([7]; first compound 0.05 µM): 0.881 | relative viability ([7]; first compound 0.1581 µM): 0.957 | relative viability ([7]; first compound 0.5 µM): 0.925 | relative viability ([8]; first compound 0.005 µM): 1.1 | relative viability ([8]; first compound 0.01581 µM): 1.15 | relative viability ([8]; first compound 0.05 µM): 1.15 | relative viability ([8]; first compound 0.1581 µM): 1.11 | relative viability ([8]; first compound 0.5 µM): 1.16 | relative viability ([9]; first compound 0.005 µM): 0.972 | relative viability ([9]; first compound 0.01581 µM): 0.948 | relative viability ([9]; first compound 0.05 µM): 0.901 | relative viability ([9]; first compound 0.1581 µM): 0.946 | relative viability ([9]; first compound 0.5 µM): 0.904 | relative viability ([10]; first compound 0.005 µM): 0.657 | relative viability ([10]; first compound 0.01581 µM): 1.05 | relative viability ([10]; first compound 0.05 µM): 0.622 | relative viability ([10]; first compound 0.1581 µM): 0.881 | relative viability ([10]; first compound 0.5 µM): 0.898 | relative viability ([11]; first compound 0.005 µM): 0.658 | relative viability ([11]; first compound 0.01581 µM): 0.732 | relative viability ([11]; first compound 0.05 µM): 0.682 | relative viability ([11]; first compound 0.1581 µM): 0.676 | relative viability ([11]; first compound 0.5 µM): 0.749 | relative viability ([12]; first compound 0.005 µM): 0.833 | relative viability ([12]; first compound 0.01581 µM): 0.934 | relative viability ([12]; first compound 0.05 µM): 0.846 | relative viability ([12]; first compound 0.1581 µM): 0.74 | relative viability ([12]; first compound 0.5 µM): 0.782 | relative viability ([13]; first compound 0.005 µM): 0.67 | relative viability ([13]; first compound 0.01581 µM): 0.807 | relative viability ([13]; first compound 0.05 µM): 0.697 | relative viability ([13]; first compound 0.1581 µM): 0.7 | relative viability ([13]; first compound 0.5 µM): 0.855 | relative viability ([14]; first compound 0.005 µM): 1.14 | relative viability ([14]; first compound 0.01581 µM): 1.39 | relative viability ([14]; first compound 0.05 µM): 1.04 | relative viability ([14]; first compound 0.1581 µM): 0.899 | relative viability ([14]; first compound 0.5 µM): 1.01 | relative viability ([15]; first compound 0.005 µM): 0.877 | relative viability ([15]; first compound 0.1581 µM): 0.933 | relative viability ([15]; first compound 0.5 µM): 0.821 | relative viability ([16]; first compound 0.005 µM): 1.08 | relative viability ([16]; first compound 0.01581 µM): 1.06 | relative viability ([16]; first compound 0.05 µM): 1.01 | relative viability ([16]; first compound 0.1581 µM): 0.94 | relative viability ([16]; first compound 0.5 µM): 1 | relative viability ([17]; first compound 0.005 µM): 0.879 | relative viability ([17]; first compound 0.01581 µM): 0.957 | relative viability ([17]; first compound 0.05 µM): 0.88 | relative viability ([17]; first compound 0.1581 µM): 0.882 | relative viability ([17]; first compound 0.5 µM): 0.764 | relative viability ([18]; first compound 0.005 µM): 0.817 | relative viability ([18]; first compound 0.01581 µM): 0.955 | relative viability ([18]; first compound 0.05 µM): 1.01 | relative viability ([18]; first compound 0.1581 µM): 1.04 | relative viability ([18]; first compound 0.5 µM): 0.856 | relative viability ([19]; first compound 0.005 µM): 0.7 | relative viability ([19]; first compound 0.01581 µM): 0.764 | relative viability ([19]; first compound 0.05 µM): 0.757 | relative viability ([19]; first compound 0.1581 µM): 0.727 | relative viability ([19]; first compound 0.5 µM): 0.771 | relative viability ([20]; first compound 0.005 µM): 0.833 | relative viability ([20]; first compound 0.01581 µM): 1.02 | relative viability ([20]; first compound 0.05 µM): 0.92 | relative viability ([20]; first compound 0.1581 µM): 0.926 | relative viability ([20]; first compound 0.5 µM): 0.904 | relative viability ([21]; first compound 0.005 µM): 0.96 | relative viability ([21]; first compound 0.01581 µM): 1.1 | relative viability ([21]; first compound 0.05 µM): 1.12 | relative viability ([21]; first compound 0.1581 µM): 1.03 | relative viability ([21]; first compound 0.5 µM): 1.03 | relative viability ([22]; first compound 0.005 µM): 0.997 | relative viability ([22]; first compound 0.01581 µM): 1.07 | relative viability ([22]; first compound 0.05 µM): 1.08 | relative viability ([22]; first compound 0.1581 µM): 0.927 | relative viability ([22]; first compound 0.5 µM): 1.2
